Data reported in ChEMBL document CHEMBL5046269, “Multifunctional P450 Monooxygenase CftA Diversifies the Clifednamide Pool through Tandem C-H Bond Activations” (2022).

Assays:
Format in all cases: functional
Staphylococcus aureus = experiment: Antibacterial activity against Staphylococcus aureus ATCC 11632 assessed as inhibition of bacterial growth measured after 18 hrs by CLSI protocol based microbroth dilution method
Bacillus subtilis = experiment: Antibacterial activity against Bacillus subtilis ATCC 6633 assessed as inhibition of bacterial growth measured after 18 hrs by CLSI protocol based microbroth dilution method
Candida albicans = experiment: Antifungal activity against Candida albicans ATCC 48130 assessed as inhibition of fungal growth measured after 18 hrs by CLSI protocol based microbroth dilution method
Micrococcus luteus = experiment: Antibacterial activity against Micrococcus luteus ATCC 10240 assessed as inhibition of bacterial growth measured after 18 hrs by CLSI protocol based microbroth dilution method

Measured: MIC90

CC[C@H]1[C@@H]2C=C[C@@H]3[C@H]4C/C=C\C(=O)NCCC[C@@H]5NC(=O)C(=C5O)C(=O)/C=C/[C@@H]4C[C@@H]3[C@H]2C[C@H]1C
22.4 µM: Staphylococcus aureus | Bacillus subtilis | Candida albicans | Micrococcus luteus
